Data published in ChEMBL document CHEMBL1144189, “Novel and potent oxazolidinone antibacterials featuring 3-indolylglyoxamide substituents” (Bioorg Med Chem Lett, 2008).
In brackets after ≈: the same amount, converted by molar mass.

Experiments:
Enterococcus faecalis [1] = assay: Antibacterial activity against vancomycin-susceptible Enterococcus faecalis DRCC 034; format: functional
Enterococcus faecium = assay: Antibacterial activity against vancomycin-resistant Enterococcus faecium DRCC 154; format: functional
Staphylococcus aureus [2] = assay: Antibacterial activity against methicillin-resistant Staphylococcus aureus DRCC 019; format: functional
Enterococcus faecalis [3] = assay: Antibacterial activity against vancomycin-resistant Enterococcus faecalis DRCC 153; format: functional
Haemophilus influenzae = assay: Antibacterial activity against beta-lactamase deficient Haemophilus influenzae DRCC 433; format: functional
Staphylococcus aureus [4] = assay: Antibacterial activity against methicillin-susceptible Staphylococcus aureus DRCC 035; format: functional
Staphylococcus aureus [5] = assay: Antibacterial activity against Staphylococcus aureus DRCC 035 infected mouse systemic infection model administered orally for 1 day at 1 and 5 hrs post-infection and measured daily for 5 days; format: functional; details: po
Moraxella catarrhalis = assay: Antibacterial activity against beta-lactamase deficient Moraxella catarrhalis DRCC 300; format: functional
Staphylococcus aureus [6] = assay: Antibacterial activity against linezolid-resistant Staphylococcus aureus DRCC 564; format: functional
Enterococcus faecalis [7] = assay: Antibacterial activity against linezolid-resistant Enterococcus faecalis DRCC 632; format: functional
[8] = AUC (0 to t) in Swiss albino mouse at 10 mg/kg, po; format: ADME, organism-based; parameters: dose 10 mg/kg, route oral; details: plasma
[9] = Cmax in Swiss albino mouse at 10 mg/kg, po; format: ADME, organism-based; parameters: dose 10 mg/kg, route oral; details: in vivo
[10] = Drug elimination in Swiss albino mouse at 10 mg/kg, po; format: ADME, organism-based; parameters: dose 10 mg/kg, route oral; details: in vivo
[11] = Tmax in Swiss albino mouse at 10 mg/kg, po; format: ADME, organism-based; parameters: dose 10 mg/kg, route oral; details: in vivo
[12] = Half life in Swiss albino mouse at 10 mg/kg, po; format: ADME, organism-based; parameters: dose 10 mg/kg, route oral; details: in vivo

Compound	MIC (Enterococcus faecalis [1]) [µg/mL]	MIC (Enterococcus faecium) [µg/mL]	MIC (Staphylococcus aureus [2]) [µg/mL]	MIC (Enterococcus faecalis [3]) [µg/mL]	MIC (Haemophilus influenzae) [µg/mL]	MIC (Staphylococcus aureus [4]) [µg/mL]	ED50 (Staphylococcus aureus [5]) [mg/kg]	MIC (Moraxella catarrhalis) [µg/mL]	MIC (Staphylococcus aureus [6]) [µg/mL]	MIC (Enterococcus faecalis [7]) [µg/mL]	AUC(0-t) [8] [ng·h/mL]	Cmax [9] [ng/mL]	k el [10] [s⁻¹]	Tmax [11] [h]	half-life [12] [h]
COc1ccc2[nH]cc(C(=O)C(=O)N3CCN(c4ccc(N5C[C@H](CNC(C)=O)OC5=O)cc4F)CC3)c2c1	1 (≈ 1.86 µM)	1 (≈ 1.86 µM)	1 (≈ 1.86 µM)	0.5 (≈ 0.93 µM)	> 32	2 (≈ 3.72 µM)									
CC(=O)NC[C@H]1CN(c2ccc(N3CCN(C(=O)C(=O)c4cn(C)c5ccccc45)CC3)c(F)c2)C(=O)O1	1 (≈ 1.92 µM)	2 (≈ 3.83 µM)	1 (≈ 1.92 µM)	1 (≈ 1.92 µM)	> 32	2 (≈ 3.83 µM)									
O=C(C(=O)N1CCN(c2ccc(N3C[C@H](CNC(=O)C(F)F)OC3=O)cc2F)CC1)c1c[nH]c2ccc(Br)cc12	1 (≈ 1.61 µM)	0.5 (≈ 0.803 µM)	1 (≈ 1.61 µM)	0.25 (≈ 0.402 µM)	> 32	2 (≈ 3.21 µM)	> 30	2 (≈ 3.21 µM)	4 (≈ 6.43 µM)	4 (≈ 6.43 µM)					
CC(=O)NC[C@H]1CN(c2ccc(N3CCN(C(=O)C(=O)c4c[nH]c5ncccc45)CC3)c(F)c2)C(=O)O1	1 (≈ 1.97 µM)	1 (≈ 1.97 µM)	1 (≈ 1.97 µM)	0.5 (≈ 0.983 µM)	> 32	2 (≈ 3.93 µM)	> 30				3360	1050	0.000219	0.5	0.87
O=C(C(=O)N1CCN(c2ccc(N3C[C@H](COc4ccon4)OC3=O)cc2F)CC1)c1c[nH]c2ccc(Br)cc12	32 (≈ 52.3 µM)	> 32	32 (≈ 52.3 µM)	32 (≈ 52.3 µM)	> 32	> 32		32 (≈ 52.3 µM)	32 (≈ 52.3 µM)	32 (≈ 52.3 µM)					
CC(=O)NC[C@H]1CN(c2ccc(N3CCN(C(=O)C(=O)c4c[nH]c5ccccc45)CC3)c(F)c2)C(=O)O1	1 (≈ 1.97 µM)	1 (≈ 1.97 µM)	1 (≈ 1.97 µM)	1 (≈ 1.97 µM)	16 (≈ 31.5 µM)	1 (≈ 1.97 µM)	19.4								
O=C(C(=O)N1CCN(c2ccc(N3C[C@H](CNC(=O)C4CC4)OC3=O)cc2F)CC1)c1c[nH]c2ccc(Br)cc12	2 (≈ 3.27 µM)	2 (≈ 3.27 µM)	2 (≈ 3.27 µM)	1 (≈ 1.63 µM)	> 32	1 (≈ 1.63 µM)	18.9	4 (≈ 6.53 µM)	8 (≈ 13.1 µM)	8 (≈ 13.1 µM)	1260	300	0.000169	2	1.13
COC(=O)NC[C@H]1CN(c2ccc(N3CCN(C(=O)C(=O)c4c[nH]c5ccc(Br)cc45)CC3)c(F)c2)C(=O)O1	1 (≈ 1.66 µM)	1 (≈ 1.66 µM)	0.5 (≈ 0.83 µM)	0.5 (≈ 0.83 µM)	> 32	1 (≈ 1.66 µM)		2 (≈ 3.32 µM)	16 (≈ 26.6 µM)	32 (≈ 53.1 µM)					
O=C(C(=O)N1CCN(c2ccc(N3C[C@H](CNC(=O)C(Cl)Cl)OC3=O)cc2F)CC1)c1c[nH]c2ccc(Br)cc12	1 (≈ 1.53 µM)	0.5 (≈ 0.763 µM)	1 (≈ 1.53 µM)	0.25 (≈ 0.381 µM)	> 32	1 (≈ 1.53 µM)	> 30	2 (≈ 3.05 µM)	4 (≈ 6.1 µM)	4 (≈ 6.1 µM)					
